The values below come from US4438109A, “Tylosin derivatives” (Zaidan Hojin Biseibutsu Kagaku Kenkyu Kai, priority 1980, dated 1984).

Common to all, as to assay: minimum inhibition concentration (MIC)
Format in all cases: cell-based

In assay [1] the test system is Staph. aureus 209 P. The note with it: Staphylococcus aureus. From the text:
(§1) Regarding the antimicrobial activity of the tylosin derivatives of this invention shown by formula I, the minimum inhibition concentration (MIC) is shown in Table I.

In assay [2] the test system is Ataph. aureus MS 9861.
Description: as §1

Assay [3] deals with Staph. aureus MS 10225. The conditions noted are these: Staphylococcus aureus, MS10225.
Description: as §1

In assay [4] the test system is B. subtilis NRRL B-558. The conditions noted are these: Bacillus subtilis, NRRLB558.
Description: as §1

Assay [5] deals with Sal. enteritidis 1891. The note with it: Salmonella enterica.
Description: as §1

Assay [6] deals with Kleb. pneumoniae PCI 602. The conditions noted are these: Klebsiella pneumoniae, PCI602.
Description: as §1

Assay [7] deals with E. coli NIHJ. The note with it: Escherichia coli.
Description: as §1

Assay [8] deals with Sh. dysenteriae JS 11910. The conditions noted are these: Shigella dysenteriae, JS11910.
Description: as §1

[9] abbreviates: Staph. aureus 209 P, read-out: MIC.
[10] abbreviates: Sal. enteritidis 1891, read-out: MIC.
Where [11] appears, read: Kleb. pneumoniae PCI 602, read-out: MIC.
The mark [12] stands for this setting: B. subtilis NRRL B-558, read-out: MIC.

Molecules are shown by their SMILES. ≈ marks a conversion by molar mass, not a printed value. Like-named read-outs stand apart in the source and are kept apart here.

For the compound `CCC(=O)OCC1C=C(C)C=CC(=O)C(C)CC(CC=O)C(OC2OC(C)CC(N(C)C)C2O)C(C)C(O)CC(=O)OC1CC` (centres unmarked) [Example 10, 23-O-propionyl-4'-deoxy mycaminosyl tylonolide], the MIC is 0.2 µg/mL (≈ 0.314 µM) in assay [1] (setting [9]); 3.12 µg/mL (≈ 4.89 µM) in assay [2]; 0.2 µg/mL (≈ 0.314 µM) in assay [3]; less than 0.2 µg/mL in assay [4]; 0.78 µg/mL (≈ 1.22 µM) in assay [5] (setting [10]); 1.56 µg/mL (≈ 2.45 µM) in assay [6]. Besides, the MIC in assay [7] (E. coli NIHJ, read-out: MIC) is 6.25 µg/mL (≈ 9.8 µM); in assay [8] it was 0.2 µg/mL (≈ 0.314 µM).
With `CC[C@H]1OC(=O)C[C@@H](O)[C@H](C)[C@@H](O[C@@H]2O[C@H](C)[C@@H](O[C@H]3C[C@@](C)(O)[C@@H](O)[C@H](C)O3)[C@H](N(C)C)[C@H]2O)[C@@H](CC=O)C[C@@H](C)C(=O)/C=C/C(C)=C/[C@@H]1CO[C@@H]1O[C@H](C)[C@@H](O)[C@@H](OC)[C@H]1OC` [Tylosin], the MIC in assay [1] (209P) came out at 0.39 µg/mL (≈ 0.426 µM); in assay [2], 6.25 µg/mL (≈ 6.82 µM); in assay [3] it was 3.12 µg/mL (≈ 3.41 µM); in assay [5] (setting [10]) it was 25 µg/mL (≈ 27.3 µM); in assay [6] (setting [11]), 25 µg/mL (≈ 27.3 µM); in assay [7] it was 100 µg/mL (≈ 109 µM). This compound yielded an MIC in assay [8] of 12.5 µg/mL (≈ 13.6 µM).
Take `CCC1OC(=O)CC(O)C(C)C(OC2OC(C)CC(N(C)C)C2O)C(CC=O)CC(C)C(=O)C=CC(C)=CC1COC1CCCS1` (centres unmarked) [Example 18, 23-O-tetrahydrothiofuranyl-4'-deoxy mycaminosyl tylonolide]: the minimal inhibitory concentration (MIC) in assay [1] (setting [9]) was less than 0.2 µg/mL; in assay [2] it was 0.2 µg/mL (≈ 0.299 µM); in assay [3], 0.2 µg/mL (≈ 0.299 µM); in assay [4] it was less than 0.2 µg/mL; in assay [5] (setting [10]), 1.56 µg/mL (≈ 2.34 µM); in assay [6] (setting [11]), 1.56 µg/mL (≈ 2.34 µM). Besides, the minimum inhibitory concentration (MIC) in assay [7] (E. coli NIHJ, read-out: MIC) is 6.25 µg/mL (≈ 9.36 µM); in assay [8], 0.39 µg/mL (≈ 0.584 µM).
As to `CCC1OC(=O)CC(O)C(C)C(OC2OC(C)CC(N(C)C)C2O)C(CC=O)CC(C)C(=O)C=CC(C)=CC1CSc1ccccn1` (centres unmarked) [Example 27, 23,4'-dideoxy-23-(pyridine-2-ylthio) mycaminosyl tylonolide], the MIC is less than 0.2 µg/mL in assay [1] (setting [9]); 0.78 µg/mL (≈ 1.16 µM) in assay [2]; 0.39 µg/mL (≈ 0.578 µM) in assay [3]; less than 0.2 µg/mL in assay [4] (setting [12]); 0.78 µg/mL (≈ 1.16 µM) in assay [5] (setting [10]); 1.56 µg/mL (≈ 2.31 µM) in assay [6] (setting [11]). In addition, the minimal inhibitory concentration (MIC) was found to be 12.5 µg/mL (≈ 18.5 µM) in assay [7] and 0.2 µg/mL (≈ 0.296 µM) in assay [8].
`CCC1OC(=O)CC(O)C(C)C(OC2OC(C)CC(N(C)C)C2O)C(CC=O)CC(C)C(=O)C=CC(C)=CC1COC1CCCCS1` (centres unmarked) [Example 19, 23-O-tetrahydrothiopyranyl-4'-deoxy mycaminosyl tylonolide]: the MIC in assay [1] (setting [9]) is less than 0.2 µg/mL; in assay [2] it was less than 0.2 µg/mL; in assay [3], less than 0.2 µg/mL; in assay [4] it was less than 0.2 µg/mL; in assay [5] (setting [10]), 1.56 µg/mL (≈ 2.29 µM); in assay [6] it was 3.12 µg/mL (≈ 4.58 µM). The minimal inhibitory concentration (MIC) in assay [7] (E. coli NIHJ, read-out: MIC) is 25 µg/mL (≈ 36.7 µM); in assay [8], 0.39 µg/mL (≈ 0.572 µM).
With `CCC1OC(=O)CC(O)C(C)C(OC2OC(C)CC(N(C)C)C2O)C(CC=O)CC(C)C(=O)C=CC(C)=CC1CO` (centres unmarked) [Example 2, 4'-deoxy mycaminosyl tylonolide], the MIC turned out to be 0.2 µg/mL (≈ 0.344 µM) in assay [1] (209P); 3.12 µg/mL (≈ 5.36 µM) in assay [2]; 3.12 µg/mL (≈ 5.36 µM) in assay [3]; 0.78 µg/mL (≈ 1.34 µM) in assay [4] (setting [12]); 0.78 µg/mL (≈ 1.34 µM) in assay [5] (setting [10]); 0.78 µg/mL (≈ 1.34 µM) in assay [6] (setting [11]). Further, the MIC in assay [7] was 3.12 µg/mL (≈ 5.36 µM); in assay [8] it was less than 0.2 µg/mL.
As to `CCC1OC(=O)CC(O)C(C)C(OC2OC(C)CC(N(C)C)C2O)C(CC=O)CC(C)C(=O)C=CC(C)=CC1COC(C)=O` (centres unmarked) [Example 9, 23-O-acetyl-4'-deoxy mycaminosyl tylonolide], the MIC in assay [1] (209P) came out at 0.2 µg/mL (≈ 0.321 µM); in assay [2], 1.56 µg/mL (≈ 2.5 µM); in assay [3], 0.78 µg/mL (≈ 1.25 µM); in assay [4], 0.39 µg/mL (≈ 0.625 µM); in assay [5] (ENTERITIDIS), 1.56 µg/mL (≈ 2.5 µM); in assay [6] (setting [11]), 6.25 µg/mL (≈ 10 µM). The results for the MIC in assay [7] and in assay [8] were 6.25 µg/mL (≈ 10 µM) and 0.78 µg/mL (≈ 1.25 µM), respectively.
Regarding `CCC1OC(=O)CC(O)C(C)C(OC2OC(C)CC(N(C)C)C2O)C(CC=O)CC(C)C(=O)C=CC(C)=CC1CCl` (centres unmarked) [Example 21, 23-chloro-23,4'-dideoxy mycaminosyl tylonolide], the MIC in assay [1] (setting [9]) is 0.78 µg/mL (≈ 1.3 µM); in assay [2], 6.25 µg/mL (≈ 10.4 µM); in assay [3] it was 6.25 µg/mL (≈ 10.4 µM); in assay [4] (setting [12]), 0.2 µg/mL (≈ 0.333 µM); in assay [5] (setting [10]), 0.39 µg/mL (≈ 0.65 µM); in assay [6] (setting [11]), 1.56 µg/mL (≈ 2.6 µM). For the same compound, the minimal inhibitory concentration (MIC) amounted to 6.25 µg/mL (≈ 10.4 µM) in assay [7] (E. coli NIHJ, read-out: MIC) and 0.39 µg/mL (≈ 0.65 µM) in assay [8].
Turning to `CCC1OC(=O)CC(O)C(C)C(OC2OC(C)CC(N(C)C)C2O)C(CC=O)CC(C)C(=O)C=CC(C)=CC1COCSC` (centres unmarked) [Example 20, 23-O-methylthiomethyl-4'-deoxy mycaminosyl tylonolide], the MIC in assay [1] (setting [9]) was less than 0.2 µg/mL; in assay [2], 3.12 µg/mL (≈ 4.86 µM); in assay [3], 0.78 µg/mL (≈ 1.22 µM); in assay [4] (setting [12]) it was less than 0.2 µg/mL; in assay [5] (setting [10]), 0.78 µg/mL (≈ 1.22 µM); in assay [6] (setting [11]), 1.56 µg/mL (≈ 2.43 µM). The minimal inhibitory concentration (MIC) in assay [7] (E. coli NIHJ, read-out: MIC) came out at 6.25 µg/mL (≈ 9.74 µM); in assay [8], 0.78 µg/mL (≈ 1.22 µM).

The MIC is the least concentration at which growth counts as inhibited.
